Test results: US20230293535A1, “ERBB/BTK INHIBITORS” (Dizal (Jiangsu) Pharmaceutical Co., Ltd., priority 2018, published 2023)
Read-outs that look alike come from different tables or passages of the source.

What was measured:
[1] = biological target: T1, human EGFR exon 20 H773_V774insNPH (Homo sapiens, UniProt P00533, INS773NPH); test: EGFR Exon20 NPH insertion cellular phosphorylation inhibition (MSD pEGFR Y1068/total EGFR); format: cell-based; conditions: Ba/F3 EGFR NPH ins cells, 4 h compound, p-EGFR(Y1068)/total EGFR;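 note: IL3-independent Ba/F3 cells with constitutively phosphorylated EGFR, compound exposure at 37 °C under 5% CO2, electrochemiluminescent MSD measurement of the p-EGFR to total EGFR ratio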
T1 construct: host or cells: Ba/F3
Experimental: One day before the test, WT or mutant cells were seeded in 96 well plates at appropriate concentrations with corresponding growth media supplemented with 1% FBS, and incubated overnight. The next day, tested compounds at a series of concentrations were added into each individual well of the plates, and the plates were incubated for 4 h at 37° C. with 5% CO2.
The EGFR (Y1068) phosphorylation level (activity) of cells in each well were then measured with MSD kit named “MULTI-SPOT®96 4-Spot HB Prototype EGFR Triplex [sequence]: pEGFR(Tyr1068),pEGFR(Tyr1173), Total EGFR” according to the manufacturer’s instruction (MESO SCALE DISCOVERY, Cat# N45ZB-1). The assay is an electrochemiluminescent method for determining both phosphorylated and total EGFR of cells with an MSD SECTOR® Imager and the ratio of p-EGFR/total EGFR can be generated by the machine.

[2] = system: TMD-8 cells; test: BTK (wt) cell proliferation, TMD-8 (CellTiter-Glo, 72 h); format: cell-based; conditions: TMD-8 cells, 72 h, CellTiter-Glo, read-out: BTK WT TMD-8 GI50;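 note: viable cells quantified by ATP-based luminescence, proliferation expressed as percent of DMSO control after subtracting a time-zero baseline plate read at dosing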
Experimental: OCI-LY-10 at 3,750 cells/well, TMD-8 and Ri-1 at 2,000 cells/well, and DB at 1,250 cells/well, respectively, were sorted into 384-well plates in RPMI1640 medium with 10% FBS. After overnight incubation, all cells were incubated with compound at a series of concentrations. Meanwhile, a duplicated plate of each cell line was prepared for measuring G0 value. The dosed plates were further incubated for 72 hours and the number of viable cells was measured by CellTiter-Glo® Luminescent Cell Viability Assay (Promega), a luminescent method for determining the number of viable cells through measurement of cellular ATP concentration using Envision plate reader (PerkinElmer). The percentage of proliferation was calculated as: % Proliferation = 100 × (G3 value of sample well - G0 value)/(G3 value of DMSO control - G0 value).

[3] = system: Ba/F3 EGFR NPH ins cells; test: Cell proliferation, Ba/F3 EGFR NPH ins (CellTiter-Glo, 72 h); format: cell-based; conditions: Ba/F3 EGFR, 72 h, Ba/F3 EGFR NPH ins, 72 h proliferation; read-out: EGFR Exon20 NPH insertion GI50;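 note: IL3-independent cells carrying constitutively phosphorylated EGFR, compound dilution series, viable cells quantified by ATP luminescence, growth relative to DMSO wells after subtracting pre-dosing (day 0) baseline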
[4] = system: Ba/F3 EGFR ASV ins cells; test: Cell proliferation, Ba/F3 EGFR ASV ins (CellTiter-Glo, 72 h); format: cell-based; conditions: Ba/F3 EGFR, 72 h, Ba/F3 EGFR ASV ins, 72 h proliferation; read-out: EGFR Exon20 ASV insertion GI50;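 note: IL3-independent Ba/F3 cells transduced with EGFR V769_D770insASV, cellular ATP luminescence after compound exposure, growth relative to DMSO control with the day-0 baseline reading subtracted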
[5] = In vitro human hepatocytes clearance assay; conditions: both, human, cryopreserved human hepatocytes (suspension), human hepatocytes Clint (µL/min/10^6cells), mixed gender human hepatocytes, incubation up to 100 min
Experimental: (§1) The protocol for rat/human hepatocytes metabolic stability assay is employed to determine the clearance of the compounds of the present disclosure in vitro.
(§2) Rat hepatocytes in male gender and human hepatocytes in mixed gender were obtained from commercial vendors (e.g., BioreclamationIVT) and stored at -150° C. prior to use. 10 mM stock solutions of tested compounds were prepared in DMSO. Thawing medium and supplement incubation medium (serum-free) were placed in a 37° C. water bath for at least 15 minutes prior to use. Stock solutions were diluted to 100 µM by combining 198 µL acetonitrile and 2 µL of 10 mM stock solution.
(§3) Vials of cryopreserved hepatocytes were removed from storage, ensured that vials remain at cryogenic temperatures. The vials were thawed in a 37° C. water bath with gently shaking. Vials were kept in water bath until all ice crystals had dissolved and were no longer visible. Vials were sprayed with 70% ethanol before being transferred to a biosafety cabinet. And then the contents were poured into the 50 mL thawing medium conical tube. Vials were centrifuged at 100 g for 10 minutes at room temperature.
(§4) Cell viability and density were counted using a Trypan Blue exclusion, and then cells were diluted with serum-free incubation medium to a working cell density of 1 × 10^6 viable cells/ml. […] The inactivated hepatocytes were used to prepare negative samples, which were used to exclude the misleading factor that resulted from instability of chemical itself.
(§5) Aliquots of 247.5 µL hepatocytes were dispensed into each well of a 96-well non-coated plate. The plate was placed in the incubator on an orbital shaker for approximately 10 minutes. Aliquots of 2.5 µL of the 100 µM test compounds were added into respective wells of the non-coated 96-well plate to start the reaction. This assay was performed in duplicate. The plate was incubated in the incubator on an orbital shaker for the designed time points. […] Samples were centrifuges for 20 minutes at 4000 g and aliquots of 100 µL of the supernatants were used for LC-MS/MS analysis for measurement of test compounds
(§6) In vitro hepatocyte clearance was estimated based on determination of elimination half-life (T½) of compounds disappearance from their initial concentrations. Peak area ratios of each compound (test or control) to IS was calculated. Ln (%Control) versus Incubation Time (min) curve was plotted, and the slope of a linear fitting line was calculated.

[6] = system: Ri-1 cells; test: BTK (wt) cell proliferation, Ri-1 (CellTiter-Glo, 72 h); format: cell-based; conditions: Ri-1 cells, 72 h, CellTiter-Glo, read-out: BTK WT Ri-1 GI50;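 note: viable cells quantified as cellular ATP luminescence, proliferation normalized to a time-zero plate and the DMSO control, compounds tested across a dilution series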
[7] = biological target: T2, human Her2 exon 20 insertion mutation YVMA (Homo sapiens, UniProt P04626, INS775YVMA); test: Her2 Exon 20 YVMA insertion cellular phosphorylation inhibition (MSD p-Her2 Y1248/total Her2); format: cell-based; conditions: Her2 YVMAins cells, 4 h compound;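 note: lentivirally transduced NIH-3T3 cells in 1% FBS medium, electrochemiluminescent MSD read-out, graded compound concentrations at 37 °C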
T2 construct: expressed in transfected cells; host or cells: NIH-3T3, lentiviral transduction, puromycin selection

[8] = system: Her2 exon 20 insertion YVMA transduced NIH-3T3 cell line; test: Cell proliferation, Her2 YVMAins NIH-3T3 (CellTiter-Glo, 72 h); format: cell-based; conditions: Mus musculus, NIH3T3, 72 h, Her2 YVMAins cells, 72 h proliferation; read-out: Her2 Exon 20 YVMA insertion GI50;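 note: viable cells quantified by ATP luminescence, growth over a day-zero baseline plate expressed as percent of DMSO control growth, compound dilution series in 10% FBS medium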
Experimental: (§7) WT or mutant cells were seeded in 384 well plates at appropriate concentrations with corresponding growth media supplemented with 10% FBS, for each experiment, identical plates were prepared in duplicates, and the plates were incubated overnight. On the next day, one of each duplicated plates was dosed with tested compounds at a series of concentrations, and another one of the duplicated plate was analysied for G0 value. The dosed plates were incubate for another 72 h at 37° C. with 5% CO2 and the number of viable cells in each well of the G0 plates or the dosed plates were measured by CellTiter-Glo® Luminescent Cell Viability Assay (Promega). This assay is a luminescent method for determining the number viable cells through measurement of cellular ATP concentration by detection of luciferase activity. Detection reagents (15 µl) was dispensed into per well, and the plates were incubate for 30 min at room temperature. Then, the luminescence in each well was measured using the Envision plate reader (PerkinElmer). The percentage of proliferation was calculated based on the formula: %Proliferation= 100 × (G3 value of sample well-Go value)/(G3 value of DMSO control-Go value).

[9] = system: OCI-LY-10 cells; test: BTK (wt) cell proliferation, OCI-LY-10 (CellTiter-Glo, 72 h); format: cell-based; conditions: OCI-LY-10 cells, 72 h, CellTiter-Glo, read-out: BTK WT OCI-LY-10 GI50;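 note: viable cells quantified via cellular ATP luminescence, proliferation given as percent of DMSO control after subtracting a duplicate plate read at time of dosing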
[10] = biological target: T3, WT EGFR (Homo sapiens, UniProt P00533); test: WT EGFR cellular phosphorylation inhibition in A-431 (hEGF stimulated, MSD); format: cell-based; conditions: A431 cells, 4 h compound, then 100 ng/ml hEGF 10 min;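 note: electrochemiluminescence read-out of EGFR Tyr1068 phosphorylation expressed as ratio to total EGFR, cells kept in medium with 1% FBS, compounds tested as a concentration series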
T3 construct: host or cells: A-431

[11] = system: WT EGFR cell line A-431; test: Cell proliferation, WT EGFR A431 (CellTiter-Glo, 72 h); format: cell-based; conditions: Homo sapiens, A-431, 72 h, A431, 72 h proliferation; read-out: EGFR WT A431 GI50;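 note: proliferation from a luminescent ATP viability signal, expressed as 100 × (treated minus time-zero plate) over (DMSO control minus time-zero plate), cells grown with 10% FBS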
Experimental: as §7

[12] = biological target: T4, human EGFR exon 20 V769_D770insASV (Homo sapiens, UniProt P00533, INS769ASV); test: EGFR Exon20 ASV insertion cellular phosphorylation inhibition (MSD pEGFR Y1068/total EGFR); format: cell-based; conditions: Ba/F3 EGFR ASV ins cells, 4 h compound, p-EGFR(Y1068)/total EGFR;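 note: electrochemiluminescent readout on an MSD SECTOR Imager, IL3-independent transduced cells in medium with 1% FBS, compound concentration series at 37 °C and 5% CO2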
T4 construct: expressed in transfected cells; host or cells: Ba/F3 (DSMZ ACC-300), lentiviral transduction, puromycin selection, IL3 depletion

[13] = system: DB cells; test: BTK (wt) cell proliferation, DB (CellTiter-Glo, 72 h); format: cell-based; conditions: Homo sapiens, DB, DB cells, CellTiter-Glo, read-out: Non-BCR activated DB GI50;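 note: DB cells in 384-well plates given a dilution series of compound, viable cells read by ATP luminescence, growth expressed versus DMSO control after subtracting a time-zero plate reading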
[14] = In vitro rat hepatocytes clearance assay; conditions: male, rat, cryopreserved rat hepatocytes (suspension), rat hepatocytes Clint (µL/min/10^6cells), 1 µM-range incubation up to 100 min
Experimental: as §1, §2, §3, §4, §5, §6

[15] = system: NCI-H1975 EGFR L858R/T790M cells; test: Cell proliferation, NCI-H1975 EGFR L858R/T790M (CellTiter-Glo, 72 h); format: cell-based; conditions: Homo sapiens, NCI-H1975, 72 h, NCI-H1975, 72 h proliferation; read-out: EGFR L858R and T790M mutation GI50;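 note: viable cells quantified by luciferase-based ATP luminescence, proliferation expressed relative to DMSO-treated wells (100%) after subtracting a parallel plate read at the time of dosing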
[16] = biological target: T5, EGFR L858R&T790M (Homo sapiens, UniProt P00533, L858R/T790M); test: EGFR L858R and T790M cellular phosphorylation inhibition in NCI-H1975 (MSD); format: cell-based; conditions: NCI-H1975 cells, 4 h compound, p-EGFR(Y1068)/total EGFR; read-out: EGFR L858R and T790M mutation IC50;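 note: phosphorylated and total EGFR detected by electrochemiluminescence, cells exposed to compound in medium containing 1% FBS at 37 °C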
T5 construct: host or cells: NCI-H1975
T5 sequence (P00533 25-1210 T790M/L858R): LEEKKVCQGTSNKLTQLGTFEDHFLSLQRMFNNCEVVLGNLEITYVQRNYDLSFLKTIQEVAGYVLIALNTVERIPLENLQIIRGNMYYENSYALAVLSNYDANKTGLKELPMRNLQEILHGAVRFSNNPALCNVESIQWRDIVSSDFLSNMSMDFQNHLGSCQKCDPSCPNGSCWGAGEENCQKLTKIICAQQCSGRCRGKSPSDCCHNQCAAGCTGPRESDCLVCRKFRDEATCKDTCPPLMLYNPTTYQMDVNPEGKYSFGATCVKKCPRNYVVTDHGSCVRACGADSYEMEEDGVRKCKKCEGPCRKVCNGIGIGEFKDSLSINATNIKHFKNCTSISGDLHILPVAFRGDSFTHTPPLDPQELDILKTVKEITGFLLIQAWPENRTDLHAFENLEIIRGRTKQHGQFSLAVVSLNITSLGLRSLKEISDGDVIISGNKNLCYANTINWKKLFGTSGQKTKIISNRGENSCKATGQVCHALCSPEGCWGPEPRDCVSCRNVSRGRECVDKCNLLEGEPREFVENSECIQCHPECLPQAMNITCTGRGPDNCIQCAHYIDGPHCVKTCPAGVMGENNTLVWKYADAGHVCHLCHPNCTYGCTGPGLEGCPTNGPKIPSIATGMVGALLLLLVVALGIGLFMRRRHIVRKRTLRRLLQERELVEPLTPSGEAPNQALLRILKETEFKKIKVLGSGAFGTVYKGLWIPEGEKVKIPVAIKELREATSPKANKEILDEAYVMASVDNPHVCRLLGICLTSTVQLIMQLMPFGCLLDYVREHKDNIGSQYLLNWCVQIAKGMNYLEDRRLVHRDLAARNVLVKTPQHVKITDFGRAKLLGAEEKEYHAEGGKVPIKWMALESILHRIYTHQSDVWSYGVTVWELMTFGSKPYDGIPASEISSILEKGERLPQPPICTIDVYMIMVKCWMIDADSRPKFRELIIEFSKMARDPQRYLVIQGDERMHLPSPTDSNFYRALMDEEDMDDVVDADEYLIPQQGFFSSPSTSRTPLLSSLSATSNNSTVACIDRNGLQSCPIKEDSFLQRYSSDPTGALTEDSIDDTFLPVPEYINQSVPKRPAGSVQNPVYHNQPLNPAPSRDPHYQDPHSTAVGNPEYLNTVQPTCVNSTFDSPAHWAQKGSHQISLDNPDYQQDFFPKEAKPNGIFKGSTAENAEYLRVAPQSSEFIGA

T2 sequence (P04626 with tags, fused parts or gaps INS775YVMA): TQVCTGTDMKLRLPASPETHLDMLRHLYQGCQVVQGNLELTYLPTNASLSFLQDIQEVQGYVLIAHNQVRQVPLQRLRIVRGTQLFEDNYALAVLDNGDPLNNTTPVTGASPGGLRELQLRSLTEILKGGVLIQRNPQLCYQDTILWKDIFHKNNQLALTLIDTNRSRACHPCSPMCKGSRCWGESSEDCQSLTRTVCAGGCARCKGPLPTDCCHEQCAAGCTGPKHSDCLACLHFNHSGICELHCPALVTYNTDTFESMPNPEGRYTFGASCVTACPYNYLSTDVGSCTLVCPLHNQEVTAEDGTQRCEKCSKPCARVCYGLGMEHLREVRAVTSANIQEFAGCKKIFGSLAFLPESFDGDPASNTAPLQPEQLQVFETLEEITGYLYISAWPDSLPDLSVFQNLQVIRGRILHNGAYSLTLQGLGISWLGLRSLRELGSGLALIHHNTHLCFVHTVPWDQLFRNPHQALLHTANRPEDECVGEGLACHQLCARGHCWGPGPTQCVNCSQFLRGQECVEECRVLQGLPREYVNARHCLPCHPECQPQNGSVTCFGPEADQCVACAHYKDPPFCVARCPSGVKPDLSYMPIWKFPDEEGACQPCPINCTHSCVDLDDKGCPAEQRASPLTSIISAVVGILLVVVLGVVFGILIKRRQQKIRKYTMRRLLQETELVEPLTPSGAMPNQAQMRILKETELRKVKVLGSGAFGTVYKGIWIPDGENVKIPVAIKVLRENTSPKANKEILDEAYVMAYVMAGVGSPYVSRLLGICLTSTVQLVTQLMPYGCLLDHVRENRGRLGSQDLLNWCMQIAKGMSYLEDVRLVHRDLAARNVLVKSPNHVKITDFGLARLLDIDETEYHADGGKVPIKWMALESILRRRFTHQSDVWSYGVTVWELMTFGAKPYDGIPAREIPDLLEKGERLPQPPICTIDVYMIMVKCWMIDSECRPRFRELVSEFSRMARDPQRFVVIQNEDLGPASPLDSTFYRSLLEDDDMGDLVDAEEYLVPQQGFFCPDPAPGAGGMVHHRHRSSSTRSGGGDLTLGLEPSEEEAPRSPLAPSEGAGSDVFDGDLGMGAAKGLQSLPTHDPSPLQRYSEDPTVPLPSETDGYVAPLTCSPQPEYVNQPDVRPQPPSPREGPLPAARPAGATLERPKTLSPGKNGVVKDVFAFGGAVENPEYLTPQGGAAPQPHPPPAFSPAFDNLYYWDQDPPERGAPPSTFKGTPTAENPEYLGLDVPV
T4 sequence (P00533 with tags, fused parts or gaps INS769ASV): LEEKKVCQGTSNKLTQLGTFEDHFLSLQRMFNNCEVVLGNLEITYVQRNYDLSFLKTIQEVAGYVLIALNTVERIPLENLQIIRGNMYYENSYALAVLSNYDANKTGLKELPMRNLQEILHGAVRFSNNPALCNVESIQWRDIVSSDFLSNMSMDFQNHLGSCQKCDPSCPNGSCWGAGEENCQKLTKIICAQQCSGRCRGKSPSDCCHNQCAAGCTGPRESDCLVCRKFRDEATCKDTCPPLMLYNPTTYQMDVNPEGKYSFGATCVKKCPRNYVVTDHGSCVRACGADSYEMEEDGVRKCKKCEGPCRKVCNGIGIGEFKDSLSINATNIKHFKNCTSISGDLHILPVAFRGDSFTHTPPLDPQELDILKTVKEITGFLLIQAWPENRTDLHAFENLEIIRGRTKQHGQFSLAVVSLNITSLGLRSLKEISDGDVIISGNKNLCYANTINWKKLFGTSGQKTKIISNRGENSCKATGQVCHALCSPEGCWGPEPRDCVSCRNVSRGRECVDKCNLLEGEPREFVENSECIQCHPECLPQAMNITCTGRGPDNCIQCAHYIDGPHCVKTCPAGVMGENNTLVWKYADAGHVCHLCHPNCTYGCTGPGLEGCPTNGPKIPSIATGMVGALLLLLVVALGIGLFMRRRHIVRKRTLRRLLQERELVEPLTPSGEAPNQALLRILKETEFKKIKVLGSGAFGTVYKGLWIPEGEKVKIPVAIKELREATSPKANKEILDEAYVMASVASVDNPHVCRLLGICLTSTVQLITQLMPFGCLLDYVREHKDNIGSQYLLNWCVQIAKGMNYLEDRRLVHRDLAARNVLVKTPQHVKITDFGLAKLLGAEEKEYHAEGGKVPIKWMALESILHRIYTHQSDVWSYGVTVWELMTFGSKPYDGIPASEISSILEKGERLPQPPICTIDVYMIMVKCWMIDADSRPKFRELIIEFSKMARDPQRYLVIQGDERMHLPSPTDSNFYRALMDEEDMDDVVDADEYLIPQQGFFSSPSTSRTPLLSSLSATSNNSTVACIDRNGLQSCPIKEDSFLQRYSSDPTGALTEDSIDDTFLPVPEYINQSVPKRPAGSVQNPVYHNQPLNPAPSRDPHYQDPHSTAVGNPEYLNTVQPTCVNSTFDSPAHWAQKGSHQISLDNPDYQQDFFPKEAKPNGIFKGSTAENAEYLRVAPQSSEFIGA
T1 sequence (P00533 with tags, fused parts or gaps INS773NPH): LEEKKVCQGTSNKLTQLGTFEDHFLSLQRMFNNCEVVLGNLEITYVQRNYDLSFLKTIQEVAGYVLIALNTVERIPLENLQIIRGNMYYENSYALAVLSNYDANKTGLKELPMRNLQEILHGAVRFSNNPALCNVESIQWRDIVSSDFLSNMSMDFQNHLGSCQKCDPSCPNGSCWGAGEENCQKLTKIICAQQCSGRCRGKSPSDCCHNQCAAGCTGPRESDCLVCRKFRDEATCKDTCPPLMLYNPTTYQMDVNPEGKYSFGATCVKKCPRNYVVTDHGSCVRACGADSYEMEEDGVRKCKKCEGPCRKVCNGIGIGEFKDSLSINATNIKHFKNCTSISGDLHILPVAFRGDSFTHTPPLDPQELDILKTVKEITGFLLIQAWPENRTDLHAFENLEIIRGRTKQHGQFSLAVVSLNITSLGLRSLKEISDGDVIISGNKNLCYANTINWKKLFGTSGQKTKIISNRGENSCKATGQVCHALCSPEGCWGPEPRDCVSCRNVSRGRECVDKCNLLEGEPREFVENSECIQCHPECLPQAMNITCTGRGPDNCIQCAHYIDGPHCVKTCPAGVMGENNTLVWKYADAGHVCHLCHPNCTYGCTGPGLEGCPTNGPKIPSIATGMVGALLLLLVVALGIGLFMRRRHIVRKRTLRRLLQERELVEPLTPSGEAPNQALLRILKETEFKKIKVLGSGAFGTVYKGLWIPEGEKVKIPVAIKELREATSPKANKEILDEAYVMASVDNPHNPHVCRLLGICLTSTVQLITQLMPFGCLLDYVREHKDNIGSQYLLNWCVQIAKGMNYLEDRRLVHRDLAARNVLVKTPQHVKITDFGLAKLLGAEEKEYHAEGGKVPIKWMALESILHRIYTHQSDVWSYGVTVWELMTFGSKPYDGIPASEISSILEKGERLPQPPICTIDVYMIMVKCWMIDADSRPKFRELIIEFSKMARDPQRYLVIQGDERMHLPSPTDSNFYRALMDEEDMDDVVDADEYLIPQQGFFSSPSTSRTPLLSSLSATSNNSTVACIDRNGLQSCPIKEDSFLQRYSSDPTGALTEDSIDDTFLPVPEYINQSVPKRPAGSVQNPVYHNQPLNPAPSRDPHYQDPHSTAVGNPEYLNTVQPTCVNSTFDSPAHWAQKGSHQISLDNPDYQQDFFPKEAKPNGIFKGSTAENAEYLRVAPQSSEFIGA

IC50 [1] [nM] | GI50 [3] [nM] | GI50 [4] [nM] | hepatocyte CLint at 1 µM [5] [µL/min/1e6 cells] | IC50 [7] [nM] | GI50 [9] [nM] | IC50 [10] [nM] | GI50 [11] [nM] | IC50 [12] [nM] | hepatocyte CLint at 1 µM [14] [µL/min/1e6 cells] | GI50 [15] [nM] | IC50 [16] [nM] | GI50 ([9]; Homo sapiens, OCI-Ly10, 72 h) [nM] | Compound | GI50 [2] [nM] | GI50 [6] [nM] | GI50 [8] [nM] | GI50 [13] [nM] | GI50 ([2]; Homo sapiens, TMD8, 72 h) [nM] | GI50 ([6]; Ri-1, 72 h) [nM]
27.9 | 85.9 | 113 | 4.01 | 11.6 | 2.93 | 596 | 38.3 | 103 | 13.9 | 5.4 | 1.8 |  | C=CC(=O)Nc1cc(Nc2nccc(Nc3cc(Cl)c(F)cc3C(C)(O)CC)n2)c(OC)cc1N1CC[C@@H](N(C)C)C1 (single isomer, unassigned) [Compound 76, N-(5-(4-(5-chloro-4-fluoro-2-((R)-2-hydroxybutan-2-yl)phenylamino)pyrimidin-2-ylamino)-2-((R)-3-(dimethylamino)pyrrolidin-1-yl)-4-methoxyphenyl) acrylamide or N-(5-(4-(5-chloro-4-fluoro-2-((S)-2-hydroxybutan-2-yl)phenylamino)pyrimidin-2-ylamino)-2-((R)-3-(dimethylamino)pyrrolidin-l-yl)-4-methoxyphenyl) acrylamide] | 8.44 | 5.93 | 97.7 | 1070 |  | 
31.5 | 33 | 46.1 | 3.89 | 15.3 |  | 136 | 20.8 | 27 | 17.5 | 2.8 | 1.7 | 11.4 | C=CC(=O)Nc1cc(Nc2nccc(Nc3cc(Cl)c(Cl)cc3C(C)(C)O)n2)c(OC)cc1N1CC[C@@H](N(C)C)C1 [Compound 68, (R)-N-(5-(4-(4,5-dichloro-2-(2-hydroxypropan-2-yl)phenylamino)pyrimidin-2-ylamino)-2-(3-(dimethylamino)pyrrolidin-1-yl)-4-methoxyphenyl)acrylamide] |  |  | 96.7 | 2510 | 3.6 | 13.6
22.6 | 43.2 | 27.4 | 1.1 | 12.2 |  | 27.8 | 8 | 8.6 | 6.15 | 3.3 | 0.7 | 16.3 | C=CC(=O)Nc1cc(Nc2ncnc(Nc3cc(Cl)c(F)cc3C(C)(C)O)n2)c(OC)cc1N1CC[C@@H](NC)C1 [Compound 73, (R)-N-(5-(4-(5-chloro-4-fluoro-2-(2-hydroxypropan-2-yl)phenylamino)-1,3,5-triazin-2-ylamino)-4-methoxy-2-(3-(methylamino)pyrrolidin-1-yl)phenyl) acrylamide] |  |  | 26 | > 3000 | 3.75 | 151
13.5 | 50 | 55.6 | 1.42 | 2.1 |  | 50.4 | 17.8 | 7.1 | 13.2 | 0.8 | 0.4 | 7.04 | C=CC(=O)Nc1cc(Nc2nccc(Nc3cc(Cl)c(F)cc3C(C)(C)O)n2)c(OC)cc1N1C[C@@H]2CN(C)C[C@@H]21 [Compound 96, N-(5-(4-(5-chloro-4-fluoro-2-(2-hydroxypropan-2-yl)phenylamino)pyrimidin-2-ylamino)-4-methoxy-2-((1S,5R)-3-methyl-3,6-diazabicyclo[3.2.0]heptan-6-yl)phenyl)acrylamide] |  |  | 50 | 2990 | 2.8 | 25.1

Further lines, the compound ahead of its results:

Compound | IC50 [1] [nM] | GI50 [3] [nM] | GI50 [4] [nM] | hepatocyte CLint at 1 µM [5] [µL/min/1e6 cells] | IC50 [7] [nM] | GI50 [9] [nM] | IC50 [10] [nM] | GI50 [11] [nM] | IC50 [12] [nM] | hepatocyte CLint at 1 µM [14] [µL/min/1e6 cells] | GI50 [15] [nM] | IC50 [16] [nM] | GI50 ([9]; Homo sapiens, OCI-Ly10, 72 h) [nM] | GI50 [2] [nM] | GI50 [6] [nM] | GI50 [8] [nM] | GI50 [13] [nM] | GI50 ([2]; Homo sapiens, TMD8, 72 h) [nM] | GI50 ([6]; Ri-1, 72 h) [nM]
C=CC(=O)Nc1cc(Nc2ncnc(Nc3cc(Cl)c(F)cc3C(C)(C)O)n2)c(OC)cc1N(C)CCN(C)C [Compound 11, N-(5-(4-(5-chloro-4-fluoro-2-(2-hydroxypropan-2-yl)phenylamino)-1,3,5-triazin-2-ylamino)-2-((2-(dimethylamino)ethyl)(methyl)amino)-4-methoxyphenyl)acrylamide] | 9.7 | 21.6 | 25.2 | 7.12 | 3 |  | 7.6 | 13 | 6.9 | 161 | 7.7 | 0.3 | 2.8 |  |  | 20.7 | 2800 | 10.9 | 26
[2H]C([2H])([2H])N(CCN(C)c1cc(OC)c(Nc2ncnc(Nc3cc(F)c(Cl)cc3C(C)(C)O)n2)cc1NC(=O)C=C)C([2H])([2H])[2H] [Compound 37, N-(2-((2-(bis(methyl-d3)amino)ethyl)(methyl)amino)-5-((4-((4-chloro-5-fluoro-2-(2-hydroxypropan-2-yl)phenyl)amino)-1,3,5-triazin-2-yl)amino)-4-methoxyphenyl) acrylamide] | 8.5 | 22.9 | 24 | 11.8 | 3.3 |  | 9.5 | 10.3 | 8.1 | 67.7 | 1.5 | 0.5 | 14.6 |  |  | 22.3 | 2980 | 10 | 34.6
C=CC(=O)Nc1cc(Nc2ncnc(Nc3cc(F)c(Cl)cc3C(C)(C)O)n2)c(OC)cc1N1CC[C@@H](N(C)C)C1 [Compound 51, (R)-N-(5-(4-(4-chloro-5-fluoro-2-(2-hydroxypropan-2-yl)phenylamino)-1,3,5-triazin-2-ylamino)-2-(3-(dimethylamino)pyrrolidin-1-yl)-4-methoxyphenyl)acrylamide] | 28.6 | 52.9 | 35.4 | 4.02 | 19.9 |  | 12.6 | 13.4 | 16.1 | 5.97 | 1.9 | 1 | 6.73 |  |  | 105 | > 3000 | 3.62 | 10.3
C=CC(=O)Nc1cc(Nc2ncnc(Nc3cc(Cl)c(Cl)cc3C(C)(C)O)n2)c(OC)cc1N1CC[C@@H](N(C)C)C1 [Compound 61, (R)-N-(5-(4-(4,5-dichloro-2-(2-hydroxypropan-2-yl)phenylamino)-1,3,5-triazin-2-ylamino)-2-(3-(dimethylamino)pyrrolidin-1-yl)-4-methoxyphenyl)acry lamide] | 14.2 | 18.8 | 25.6 | 2.71 | 9 |  | 18 | 12.4 | 12.3 | 7.9 | 2.1 | 0.4 | 2.72 |  |  | 87.8 | 1510 | 1.03 | 5.62
